For 24 molecules, IC50 results are on record in patent publication US20240092784A1, “CONDENSED HETEROCYCLIC COMPOUND” (NISSAN CHEMICAL CORPORATION, priority 2020, published 2024).

Where a name gives a salt, the structure may show the parent alone.

Chain of human SPR (P35270 whole entry): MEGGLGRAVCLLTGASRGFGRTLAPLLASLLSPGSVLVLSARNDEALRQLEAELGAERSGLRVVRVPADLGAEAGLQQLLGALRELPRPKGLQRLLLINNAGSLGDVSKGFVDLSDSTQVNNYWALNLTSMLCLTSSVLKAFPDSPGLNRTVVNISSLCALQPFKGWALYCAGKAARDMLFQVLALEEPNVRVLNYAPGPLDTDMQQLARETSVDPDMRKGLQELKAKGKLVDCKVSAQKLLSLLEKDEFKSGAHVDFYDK

For the first assay, the target named is human SPR (Homo sapiens (Human), UniProt P35270). Description: Evaluation Example 2: Measurement of human SPR inhibitory activity (seven concentrations, sepiapterin absorbance at 420 nm). The format is biochemical. As to conditions: Evaluation Example 2, seven concentrations 0.14 nM to 100 nM, 240 minutes at room temperature, read-out: IC50. The essentials:
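His-tagged full-length human SPR (1-261) was expressed in E. coli and the tag removed. Enzyme at 150 ng/mL in 100 mM Tris-HCl pH 7.5/0.01% BSA was mixed with compound (0.14–100 nM, seven points), 120 μM sepiapterin and 160 μM NADPH, both as added-solution concentrations. After 240 min at room temperature, remaining sepiapterin was read at 420 nm to give percent inhibition.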
Consider `CC(C)Cn1c(=O)c(C(=O)NC2CC2)c(O)n2ncc(/C=C/C(=O)N3CCOCC3CC(F)(F)F)c12` (single isomer, unassigned; isomer b) [compound 551, (E)-N-Cyclopropyl-7-hydroxy-4-isobutyl-5-oxo-3-(3-oxo-3-(3-(2,2,2-trifluoroethyl)morpholino)prop-1-en-1-yl)-4,5-dihydropyrazolo[1,5-a]pyrimidine-6-carboxamide (Isomer B)], for which the IC50 was found to be 0.84 nM.
Take `CC(C)(C)Cn1c(=O)c(C(=O)NC2CC2)c(O)n2nc(Nc3cncc(F)n3)cc12` [Synthesis Example 356, N-Cyclopropyl-2-((6-fluoropyrazin-2-yl)amino)-7-hydroxy-4-neopentyl-5-oxo-4,5-dihydropyrazolo[1,5-a]pyrimidine-6-carboxamide]: the IC50 worked out at 1.16 nM.
Same read-out and setting: to `CC(C)Cn1c(=O)c(C(=O)NC2CC2)c(O)n2ncc(/C=C/C(=O)N3CCCC3C3CC3)c12` (racemic) [compound 593, (E)-N-Cyclopropyl-3-(3-(2-cyclopropylpyrrolidin-1-yl)-3-oxoprop-1-en-1-yl)-7-hydroxy-4-isobutyl-5-oxo-4,5-dihydropyrazolo[1,5-a]pyrimidine-6-carboxamide (racemate)] belongs 1.48 nM.
On the same count and under the same terms, the value for `Cc1nn2c(O)c(C(=O)NC3CC3)c(=O)n(CC(C)C)c2c1/C=C/C(=O)N(C)C1CC1` [compound 572, (E)-N-Cyclopropyl-3-(3-(cyclopropyl(methyl)amino)-3-oxoprop-1-en-1-yl)-7-hydroxy-4-isobutyl-2-methyl-5-oxo-4,5-dihydropyrazolo[1,5-a]pyrimidine-6-carboxamide] was 1.1 nM.
For `CC(C)Cn1c(=O)c(C(=O)NC2CC2)c(O)n2ncc(/C=C/C(=O)N3CCC[C@@H]3C(F)F)c12` [compound 601, (R,E)-N-Cyclopropyl-3-(3-(2-(difluoromethyl)pyrrolidin-1-yl)-3-oxoprop-1-en-1-yl)-7-hydroxy-4-isobutyl-5-oxo-4,5-dihydropyrazolo[1,5-a]pyrimidine-6-carboxamide], the IC50 came out at 1.08 nM.
Still for that read-out and setting: the value for `CC(C)(C)Cn1c(=O)c(C(=O)NC2CC2)c(O)n2nc(Nc3cnc(C(C)(C)O)cn3)cc12` [Synthesis Example 349, N-Cyclopropyl-7-hydroxy-2-((5-(2-hydroxypropan-2-yl)pyrazin-2-yl)amino)-4-neopentyl-5-oxo-4,5-dihydropyrazolo[1,5-a]pyrimidine-6-carboxamide] was 1.36 nM; that for `COC(C)(C)Cn1c(=O)c(C(=O)NC2CC2)c(O)n2nc(Nc3cnccn3)cc12` [Synthesis Example 321, N-Cyclopropyl-7-hydroxy-4-(2-methoxy-2-methylpropyl)-5-oxo-2-(pyrazin-2-ylamino)-4,5-dihydropyrazolo[1,5-a]pyrimidine-6-carboxamide] was 0.72 nM; that for `CCN(CC)C(=O)/C=C/c1cnn2c(O)c(C(=O)NC3CC3)c(=O)n(CC(C)C)c12` [compound 504, (E)-N-Cyclopropyl-3-(3-(diethylamino)-3-oxoprop-1-en-1-yl)-7-hydroxy-4-isobutyl-5-oxo-4,5-dihydropyrazolo[1,5-a]pyrimidine-6-carboxamide] was 0.84 nM.
Turning to `CC(C)Cn1c(=O)c(C(=O)NC2CC2)c(O)n2ncc(/C=C/C(=O)N3CCC(S(C)(=O)=O)CC3)c12` [compound 488], the IC50 was determined as 0.87 nM.
On the same count and under the same terms, the value for `Cc1nn2c(O)c(C(=O)NC3CC3)c(=O)n(CC(C)C)c2c1/C=C/C(=O)N1CCC[C@@H]1C` [compound 580, (S,E)-N-Cyclopropyl-7-hydroxy-4-isobutyl-2-methyl-3-(3-(2-methylpyrrolidin-1-yl)-3-oxoprop-1-en-1-yl)-5-oxo-4,5-dihydropyrazolo[1,5-a]pyrimidine-6-carboxamide] was 0.96 nM.
With `CC(C)(C)Cn1c(=O)c(C(=O)NC2CC2)c(O)n2nc(N)c(/C=C/C3CCOC3)c12` (stereo not drawn) [Synthesis Example 444, (E)-2-Amino-N-cyclopropyl-7-hydroxy-4-neopentyl-5-oxo-3-(2-(tetrahydrofuran-3-yl)vinyl)-4,5-dihydropyrazolo[1,5-a]pyrimidine-6-carboxamide hydrochloride], the IC50 was determined as 0.98 nM.
As to `CC(C)Cn1c(=O)c(C(=O)NC2CC2)c(O)n2ncc(/C=C/C(=O)N3C[C@@H]4C[C@H]3CO4)c12` [compound 539, 3-((E)-3-((1S,4S)-2-Oxa-5-azabicyclo[2.2.1]heptan-5-yl)-3-oxoprop-1-en-1-yl)-N-cyclopropyl-7-hydroxy-4-isobutyl-5-oxo-4,5-dihydropyrazolo[1,5-a]pyrimidine-6-carboxamide], the IC50 amounted to 0.64 nM.
On the same count and under the same terms, to `CC(C)(C)Cn1c(=O)c(C(=O)NC2CC2)c(O)n2nc(Nc3cnc(C(=O)NCC(C)(C)O)cn3)cc12` [Synthesis Example 354, N-Cyclopropyl-7-hydroxy-2-((5-((2-hydroxy-2-methylpropyl)carbamoyl)pyrazin 2-yl)amino)-4-neopentyl-5-oxo-4,5-dihydropyrazolo[1,5-a]pyrimidine-6-carboxamide] belongs 0.86 nM; to `CC(C)Cn1c(=O)c(C(=O)NC2CC2)c(O)n2ncc(/C=C/C(=O)N3CC[C@H](F)C3)c12` [compound 454, (S,E)-N-Cyclopropyl-3-(3-(3-fluoropyrrolidin-1-yl)-3-oxoprop-1-en-1-yl)-7-hydroxy-4-isobutyl-5-oxo-4,5-dihydropyrazolo[1,5-a]pyrimidine-6-carboxamide], 0.75 nM.
In the case of `CC(C)Cn1c(=O)c(C(=O)NC2CC2)c(O)n2ncc(/C=C/C(=O)N3CCCC3(C)C)c12` [compound 537, (E)-N-Cyclopropyl-3-(3-(2,2-dimethylpyrrolidin-1-yl)-3-oxoprop-1-en-1-yl)-7-hydroxy-4-isobutyl-5-oxo-4,5-dihydropyrazolo[1,5-a]pyrimidine-6-carboxamide], the IC50 was 0.86 nM.
As for `Cn1ccnc1Nc1cc2n(CC(C)(C)C)c(=O)c(C(=O)NC3CC3)c(O)n2n1` [Synthesis Example 357, N-Cyclopropyl-7-hydroxy-2-((1-methyl-1H-imidazol-2-yl)amino)-4-neopentyl-5-oxo-4,5-dihydropyrazolo[1,5-a]pyrimidine-6-carboxamide], the IC50 was 1.5 nM.
Same read-out and setting: the value for `CCc1nn2c(O)c(C(=O)NC3CC3)c(=O)n(CC(C)C)c2c1/C=C/C(=O)N1CCC[C@@H]1C(C)(C)O` [Synthesis Example 654, (R,E)-N-Cyclopropyl-2-ethyl-7-hydroxy-3-(3-(2-(2-hydroxypropan-2-yl)pyrrolidin-1-yl)-3-oxoprop-1-en-1-yl)-4-isobutyl-5-oxo-4,5-dihydropyrazolo[1,5-a]pyrimidine-6-carboxamide] was 0.95 nM.
The same measure, in the same setting: to `CC(C)Cn1c(=O)c(C(=O)NC2CC2)c(O)n2ncc(/C=C/C(=O)N3CCC(C(N)=O)CC3)c12` [compound 477, (E)-3-(3-(4-Carbamoylpiperidin-1-yl)-3-oxoprop-1-en-1-yl)-N-cyclopropyl-7-hydroxy-4-isobutyl-5-oxo-4,5-dihydropyrazolo[1,5-a]pyrimidine-6-carboxamide] belongs 0.64 nM.
Still for that read-out and setting: to `CC(C)Cn1c(=O)c(C(=O)NC2CC2)c(O)n2ncc(/C=C/C(=O)N3CCC(C(C)C)CC3)c12` [compound 473, (E)-N-Cyclopropyl-7-hydroxy-4-isobutyl-3-(3-(4-isopropylpiperidin-1-yl)-3-oxoprop-1-en-1-yl)-5-oxo-4,5-dihydropyrazolo[1,5-a]pyrimidine-6-carboxamide] belongs 2.11 nM.

Staying with this assay, now noted: sepiapterin absorbance, Table 41, read-out: concentration at 50% inhibition of human SPR (IC50).
Regarding `CC(C)Cn1c(=O)c(C(=O)NC2CC2)c(O)n2ncc(/C=C/C(=O)N3CCC[C@H]3c3ccccc3)c12` [Synthesis Example 727, (S,E)-N-Cyclopropyl-7-hydroxy-4-isobutyl-5-oxo-3-(3-oxo-3-(2-phenylpyrrolidin-1-yl)prop-1-en-1-yl)-4,5-dihydropyrazolo[1,5-a]pyrimidine-6-carboxamide], the IC50 is 1.34 nM.
On the same count and under the same terms, to `Cc1nn2c(O)c(C(=O)NC3CC3)c(=O)n(CC(C)C)c2c1/C=C/C(=O)N1CCc2cnccc21` [Synthesis Example 705, (E)-N-Cyclopropyl-3-(3-(2,3-dihydro-1H-pyrrolo[3,2-c]pyridin-1-yl)-3-oxoprop-1-en-1-yl)-7-hydroxy-4-isobutyl-2-methyl-5-oxo-4,5-dihydropyrazolo[1,5-a]pyrimidine-6-carboxamide] belongs 1.58 nM.
On the same count and under the same terms, to `CC(C)Cn1c(=O)c(C(=O)NC2CC2)c(O)n2ncc(/C=C/C(=O)N3CCN(C4CC(F)(F)C4)C[C@@H]3C)c12` [Synthesis Example 726, (S,E)-N-Cyclopropyl-3-(3-(4-(3,3-difluorocyclobutyl)-2-methylpiperazin-1-yl)-3-oxoprop-1-en-1-yl)-7-hydroxy-4-isobutyl-5-oxo-4,5-dihydropyrazolo[1,5-a]pyrimidine-6-carboxamide] belongs 1.35 nM; to `COC[C@@H]1COCCN1C(=O)/C=C/c1c(C)nn2c(O)c(C(=O)NC3CC3)c(=O)n(CC(C)(C)C)c12` [Synthesis Example 693, (R,E)-N-Cyclopropyl-7-hydroxy-3-(3-(3-(methoxymethyl)morpholino)-3-oxoprop-1-en-1-yl)-2-methyl-4-neopentyl-5-oxo-4,5-dihydropyrazolo[1,5-a]pyrimidine-6-carboxamide], 0.71 nM; to `Cc1nn2c(O)c(C(=O)NC3CC3)c(=O)n(CC(C)C)c2c1/C=C/C(=O)N1CCOc2ccncc21` [Synthesis Example 695, (E)-N-Cyclopropyl-3-(3-(2,3-dihydro-4H-pyrido[4,3-b][1,4]oxazin-4-yl)-3-oxoprop-1-en-1-yl)-7-hydroxy-4-isobutyl-2-methyl-5-oxo-4,5-dihydropyrazolo[1,5-a]pyrimidine-6-carboxamide], 1.3 nM.
